The values below come from the Deep4Chem optical property database.

The structures appear in SMILES notation.

The series in a line: solvent given as SMILES.

Regarding `Oc1ccc2ccccc2c1/C=N/c1cc2nc3ccccc3nc2cc1/N=C/c1c(O)ccc2ccccc12`, the emission maximum (in CC#N) turned out to be 525 nm.

Molecule `c1ccc(-n2c(-c3ccc(N(c4ccc(-c5ccc(N(c6ccc(-c7nc8c9ccccc9c9ccccc9c8n7-c7ccccc7)cc6)c6ccc(-c7nc8c9ccccc9c9ccccc9c8n7-c7ccccc7)cc6)cc5)cc4)c4ccc(-c5nc6c7ccccc7c7ccccc7c6n5-c5ccccc5)cc4)cc3)nc3c4ccccc4c4ccccc4c32)cc1` yielded an emission maximum (in ClCCl) of 432 nm.

The molecule `CN(C)c1ccc(C#Cc2ccc(-c3cc(N(C)C)c4ccccc4c3)cc2)cc1` registered an emission maximum (in CC#N) of 497.02 nm, an emission maximum (in CCO) of 472.33 nm and an emission maximum (in ClCCl) of 457 nm.

`CCCCCCN1C(=O)c2cccc3c(-c4ccc(-c5cc(-c6ccc(OC)cc6)n(-c6ccccc6)n5)s4)ccc(c23)C1=O`: under “in ClCCl”, the emission maximum is recorded as 521 nm.

Consider `c1ccc2c(-c3ccc4sc5ccccc5c4c3)c3ccccc3cc2c1`, for which the emission maximum was determined as 399.14 nm (in C1CCCCC1), 404.15 nm (in CC#N) and 405.52 nm (in ClCCl).

As to `C[Si](C)(C)C#C[Si](c1c2ccccc2cc2ccccc12)(c1c2ccccc2cc2ccccc12)c1c2ccccc2cc2ccccc12`, under “in ClC(Cl)Cl”, the emission maximum stood at 438 nm.

`CCOC(=O)c1cc(C(=O)OCC)c2cc(N(CC)CC)ccc2n1`: the emission maximum (in CCO) worked out at 561 nm.

Consider `C[SiH](C)c1ccc([SiH](C)C)c2ccccc12`, for which the emission maximum (in C1CCCCC1) is recorded as 333 nm.

On to `Cn1ccc(=O)n(C)c1=O`, for which the emission maximum (in CC#N) worked out at 308 nm.

Take `CCNc1ccc(NCC)c2c1C(=O)c1ccccc1C2=O`: the emission maximum (in C1CCCCC1) was found to be 670 nm; the emission maximum (in C1COCCO1) was 684 nm; the emission maximum (in CC(C)=O) was 671 nm; the emission maximum (in CCCCCCCCCCO) is reported as 672 nm; the emission maximum (in CCCCCCCO) is listed as 666 nm; the emission maximum (in CCCCCCO) came to 663 nm. Also, the emission maximum (in CCCCO) amounted to 670 nm; the emission maximum (in CCO) was 672 nm; the emission maximum (in CN(C)C=O) worked out at 680 nm; the emission maximum (in CO) came to 669 nm; the emission maximum (in CS(C)=O) is reported as 672 nm; the emission maximum (in ClC(Cl)(Cl)Cl) is listed as 679 nm. Where the note is “in c1ccccc1”, this molecule returned an emission maximum of 670 nm.

As for `c1ccc(C2c3ccccc3-c3ccccc32)cc1`, the emission maximum (in CCO) is 305 nm.

In turn, `N#C/C(=C\c1ccc(Cl)cc1)c1nc(-c2ccccc2)c(-c2ccccc2)s1` showed an emission maximum (in CC#N) of 501 nm.

Where the note is “in ClC(Cl)Cl”, `CC1=CC(C)=[N+]2C1=C(C1=C3C(C)=CC(C)=[N+]3[B-](F)(F)n3c(C)cc(C)c31)c1c(C)cc(C)n1[B-]2(F)F` yielded an emission maximum of 588 nm.

The molecule `C1=C(c2ccccc2)C=C(c2ccccc2)/C1=C/C1CCCCC1` came in with an emission maximum (in C1CCOC1) of 420 nm.

Regarding `COc1nc(Cl)nc(Nc2ccc3c4cccc5cccc(c6cccc2c63)c54)n1`, the emission maximum by setting is: (in C1COCCO1) 479 nm; (in CC#N) 482 nm; (in CCCCOCCCC) 477 nm; (in CCOC(C)=O) 477 nm.

Molecule `N#Cc1c(-n2c3ccccc3c3cc(I)ccc32)c(-n2c3ccccc3c3cc(I)ccc32)c(C#N)c(-n2c3ccccc3c3cc(I)ccc32)c1-n1c2ccccc2c2cc(I)ccc21` returned an emission maximum (in Cc1ccccc1) of 548 nm.

With `N#CC1=c2c3cccc4c(Br)ccc(c43)n2[B-](F)(F)[n+]2ccccc21`, the emission maximum came out at 545 nm (in C1CCOC1); 541 nm (in CC#N); 545 nm (in CCCCCC); 550 nm (in Cc1ccccc1); 546 nm (in ClCCl).

`Fc1cc(-c2ccc(-c3nc4cc(Br)ccc4[nH]3)cc2)ccc1-c1ccc(-c2nc3cc(Br)ccc3[nH]2)cc1` showed an emission maximum (in CN(C)C=O) of 417 nm.

The molecule `CC(C)[Si](C#Cc1c2ccc(C(C)(C)C)cc2c(C#Cc2c3ccc(C(C)(C)C)cc3c(C#Cc3c4ccc(C(C)(C)C)cc4c(C#C[Si](C(C)C)(C(C)C)C(C)C)c4ccc(C(C)(C)C)cc34)c3ccc(C(C)(C)C)cc23)c2ccc(C(C)(C)C)cc12)(C(C)C)C(C)C` came in with an emission maximum (in Cc1ccccc1) of 589 nm.

Where the note is “in CO”, `Cc1ccc(-c2nc(-c3cccc(O)c3)[nH]c2-c2ccc(C)cc2)cc1` had an emission maximum of 399 nm.

Molecule `O=C1NC(c2ccccc2)=N/C1=C\c1ccccc1` returned an emission maximum (in C1COCCO1) of 444 nm.

In the case of `C(=C\c1ncnc2ccccc12)/c1ccc(N(c2ccccc2)c2ccccc2)cc1`, the emission maximum (in C1CCCCC1) worked out at 463 nm; the emission maximum (in C1CCOC1) is recorded as 540 nm; the emission maximum (in CC#N) was 598 nm; the emission maximum (in CS(C)=O) is listed as 600 nm; the emission maximum (in ClCCl) is recorded as 571 nm.

With `COc1ccc2cc(-c3ccc(S(C)(=O)=O)cc3)oc(=O)c2c1`, the emission maximum reads like this: (in CCO) 410 nm; (in CCOC(C)=O) 404 nm; (in CN(C)C=O) 410 nm; (in CO) 410 nm; (in ClC(Cl)Cl) 408 nm.

For `C1=C(c2ccccc2)C=C(c2ccccc2)/C1=C/c1cccc(Oc2ccccc2)c1`, for the setting “in C1CCOC1”, the emission maximum was 506 nm.

Under “in ClCCl”, `CC1(C)c2ccccc2N(c2ccc(-c3nc(-c4ccccn4)n(-c4ccc(N5c6ccccc6C(C)(C)c6ccccc65)cc4)n3)cc2)c2ccccc21` came in with an emission maximum of 445 nm.

`Cc1cccc(C)c1-c1cc2c(C)c3c4cc5nc6cc7c(cc6nc5cc4c3c(C)c2cc1-c1c(C)cccc1C)c1c(C)c2cc(-c3c(C)cccc3C)c(-c3c(C)cccc3C)cc2c(C)c71` gave an emission maximum (in ClC(Cl)Cl) of 523 nm.

The molecule `Oc1ccccc1-c1nc2c3ccccc3c3ccccc3c2o1` returned an emission maximum (in Cc1ccccc1) of 367 nm.

Take `O=C(/C=C/c1cn(-c2ccccc2)nc1-c1ccccc1)c1c(O)c2ccccc2oc1=O`: the emission maximum is, setting by setting: (in C1CCOC1) 489 nm; (in C1COCCO1) 482 nm; (in CCO) 507 nm; (in CCOC(C)=O) 487 nm; (in CN(C)C=O) 505 nm; (in CO) 504 nm. Further, the emission maximum is, setting by setting: (in CS(C)=O) 510 nm; (in Cc1ccccc1) 480 nm; (in ClC(Cl)Cl) 493 nm; (in ClCCl) 502 nm.

As to `COc1ccc(O)cc1C=O`, the emission maximum is 489 nm (in CO) and 433 nm (in ClC(Cl)Cl).

Take `CCCCN1c2ccccc2B(c2ccccc2C(F)(F)F)c2ccccc21`: the emission maximum (in ClCCl) turned out to be 401 nm.

Molecule `Cc1sc(Cl)cc1-c1nc(-c2ccc(Cl)cc2)[nH]c1-c1cc(Cl)sc1C` came in with an emission maximum (in CC#N) of 390 nm.

`CN(C)c1ccc2c(c1)C(=O)c1ccccc1-2`: the emission maximum is, setting by setting: (in C1CCCCC1) 600 nm; (in c1ccccc1) 644 nm.

Where the note is “in C1CCOC1”, `c1ccc(/C(=C(\c2ccccc2)c2cc(-c3ccccc3)ccc2-c2ccc(-c3ccccc3)cc2)c2cc(-c3ccccc3)ccc2-c2ccc(-c3ccccc3)cc2)cc1` displayed an emission maximum of 494 nm.

As for `CN(C)c1ccc(C2=Nc3scc[n+]3[B-](F)(F)O2)cc1`, the emission maximum by setting is: (in C1CCOC1) 454 nm; (in CC#N) 469 nm; (in Cc1ccccc1) 439 nm; (in ClCCl) 453 nm.

`CC1(C)C(/C=C/C2=C(c3ccc(C(=O)O)cc3)C(=C/C=C3/N(CCCS(=O)(=O)[O-])c4ccc5ccccc5c4C3(C)C)/CCC2)=[N+](CCCS(=O)(=O)[O-])c2ccc3ccccc3c21` registered an emission maximum (in CO) of 811 nm.

For the molecule `C=CCOc1nnc(OCCC(F)(F)C(F)(F)C(F)(F)C(F)(F)C(F)(F)C(F)(F)F)nn1`, the emission maximum by setting is: (in ClCCl) 573 nm; (in OCC(F)(F)F) 562 nm.

On to `Cc1ccc(C2=C3C=CC(C#Cc4ccccc4)=[N+]3[B-](F)(F)n3c(Cl)ccc32)cc1`, for which the emission maximum by setting is: (in C1CCCCC1) 575 nm; (in C1CCOC1) 573 nm; (in C1COCCO1) 575 nm; (in CCOC(C)=O) 571 nm; (in CO) 569 nm; (in Cc1ccccc1) 577 nm. In addition, the emission maximum (in ClC(Cl)Cl) is reported as 577 nm.

In turn, `CC[N+](CC)=c1ccc2c(-c3ccccc3C(=O)O)c3cc4c(-c5ccccc5C(=O)O)c5ccc(=[N+](CC)CC)cc-5oc4cc3oc-2c1` registered an emission maximum (in ClC(Cl)Cl) of 622 nm.

For the molecule `COc1cccc2cc(-c3cc4cccc(OC)c4oc3=O)oc12`, the emission maximum is, setting by setting: (in CC#N) 488 nm; (in CCOC(C)=O) 460 nm; (in CS(C)=O) 488 nm; (in Cc1ccccc1) 448 nm; (in O) 504 nm.

Where the note is “in ClCCl”, `c1ccc(C2=C(c3ccccn3)[Si](c3ccccc3)(c3ccccc3)c3ccccc32)cc1` registered an emission maximum of 406 nm.

The molecule `CCCCCCc1cc2c3c(c1)c(=C1c4ccccc4S(=O)(=O)c4ccccc41)c1cc(CCCCCC)cc4c1N3c1c(cc(CCCCCC)cc1c4=C1c3ccccc3S(=O)(=O)c3ccccc31)c2=C1c2ccccc2S(=O)(=O)c2ccccc21` yielded an emission maximum (in ClCCl) of 528 nm.

`COC(=O)c1nc(-c2ccccc2)oc1C`: the emission maximum (in C1CCCCC1) is on record as 297 nm; the emission maximum (in CC#N) is recorded as 322 nm; the emission maximum (in CCO) turned out to be 324 nm; the emission maximum (in CCOC(C)=O) is reported as 318 nm; the emission maximum (in O) stood at 328 nm.

As for `CC1=[O+][B-]2(OC(=O)C(=O)O2)OC(c2c3ccccc3cc3ccccc23)=C1`, the emission maximum came to 527 nm (in CC#N) and 514 nm (in ClC(Cl)(Cl)Cl).

Regarding `CCOc1cccc(-c2nc3c(c4c2-c2ccccc2CC4)-c2ccccc2CC3)c1O`, the emission maximum (in ClCCl) is recorded as 406 nm.

Take `F[B-]1(F)n2c(ccc2-c2nc3ccccc3s2)C(c2ccccc2)=C2C=CC(c3nc4ccccc4s3)=[N+]21`: the emission maximum (in ClC(Cl)Cl) is reported as 643 nm.

Turning to `c1ccc2c(c1)c1ccccc1n2-c1ccc(-c2ccn3nc(-c4ccc(-n5c6ccccc6c6ccccc65)cc4)nc3c2)cc1`, the emission maximum (in C1CCOC1) came to 413 nm.

`CCn1c2ccccc2c2cc(-c3cc(-c4ccc5c(c4)c4ccccc4n5CC)ncn3)ccc21`: the emission maximum turned out to be 395 nm (in C1CCOC1); 392 nm (in CCOC(C)=O); 418 nm (in CN(C)C=O); 379 nm (in Cc1ccccc1); 414 nm (in ClCCl).
